This note sets out measurements from ChEMBL document CHEMBL1129915, “A novel RGD containing dodecapeptidomimetic which exhibits selective binding to the v3 receptor” (Bioorg Med Chem Lett, 1997).

Assay type in all cases: protein-complex assay
Assay [1] concerns the target Integrin alpha-V/beta-3 (Homo sapiens) (UniProt P05106+P06756). The assay is described as follows: Binding to Vitronectin receptor (alphaV-beta3) of PMA stimulated human-derived B lymphocyte on vitronectin coated microtiter plates.
Assay [2] addresses Integrin alpha-V/beta-5 (Homo sapiens) (UniProt P06756+P18084). The assay is described as follows: Binding to Vitronectin receptor (alphaV-beta5) coated microtiter plates.
The target of assay [3] is Integrin alpha-IIb/beta-3 (Homo sapiens) (UniProt P05106+P08514). The assay is described as follows: Binding to IIb/IIIa on vitronectin coated microtiter plates in ELISA.
The target in assay [4] is Fibronectin receptor (Integrin alpha-5/beta-1 and alpha-V/beta-3) (Homo sapiens) (UniProt P05106+P05556+P06756+P08648). Briefly: Binding to Fibronectin receptor on vitronectin coated microtiter plates.
Chain of Fibronectin receptor (Integrin alpha-5/beta-1 and alpha-V/beta-3) (Homo sapiens) (P05106 whole entry, looked up): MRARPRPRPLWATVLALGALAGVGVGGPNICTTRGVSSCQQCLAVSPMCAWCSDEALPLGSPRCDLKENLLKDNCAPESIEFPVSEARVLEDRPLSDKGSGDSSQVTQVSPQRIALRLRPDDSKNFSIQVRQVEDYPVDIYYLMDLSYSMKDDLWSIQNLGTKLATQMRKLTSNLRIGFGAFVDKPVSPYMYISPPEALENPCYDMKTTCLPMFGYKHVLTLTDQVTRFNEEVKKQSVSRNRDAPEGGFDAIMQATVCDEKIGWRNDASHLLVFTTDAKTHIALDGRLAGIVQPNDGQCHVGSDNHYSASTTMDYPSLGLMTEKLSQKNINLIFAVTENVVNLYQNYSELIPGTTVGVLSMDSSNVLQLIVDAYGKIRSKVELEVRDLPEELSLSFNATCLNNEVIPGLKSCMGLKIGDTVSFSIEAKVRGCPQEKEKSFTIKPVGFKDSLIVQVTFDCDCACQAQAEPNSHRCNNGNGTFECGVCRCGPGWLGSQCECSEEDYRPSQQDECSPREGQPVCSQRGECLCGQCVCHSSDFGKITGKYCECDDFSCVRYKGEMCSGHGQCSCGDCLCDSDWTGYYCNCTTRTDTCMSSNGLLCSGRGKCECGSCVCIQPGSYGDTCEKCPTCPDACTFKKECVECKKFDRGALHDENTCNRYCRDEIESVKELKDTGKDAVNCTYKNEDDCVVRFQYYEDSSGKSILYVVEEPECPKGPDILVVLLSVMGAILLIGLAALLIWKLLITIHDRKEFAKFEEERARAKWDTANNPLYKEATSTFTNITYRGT
Chain of Fibronectin receptor (Integrin alpha-5/beta-1 and alpha-V/beta-3) (Homo sapiens) (P05556 whole entry, looked up): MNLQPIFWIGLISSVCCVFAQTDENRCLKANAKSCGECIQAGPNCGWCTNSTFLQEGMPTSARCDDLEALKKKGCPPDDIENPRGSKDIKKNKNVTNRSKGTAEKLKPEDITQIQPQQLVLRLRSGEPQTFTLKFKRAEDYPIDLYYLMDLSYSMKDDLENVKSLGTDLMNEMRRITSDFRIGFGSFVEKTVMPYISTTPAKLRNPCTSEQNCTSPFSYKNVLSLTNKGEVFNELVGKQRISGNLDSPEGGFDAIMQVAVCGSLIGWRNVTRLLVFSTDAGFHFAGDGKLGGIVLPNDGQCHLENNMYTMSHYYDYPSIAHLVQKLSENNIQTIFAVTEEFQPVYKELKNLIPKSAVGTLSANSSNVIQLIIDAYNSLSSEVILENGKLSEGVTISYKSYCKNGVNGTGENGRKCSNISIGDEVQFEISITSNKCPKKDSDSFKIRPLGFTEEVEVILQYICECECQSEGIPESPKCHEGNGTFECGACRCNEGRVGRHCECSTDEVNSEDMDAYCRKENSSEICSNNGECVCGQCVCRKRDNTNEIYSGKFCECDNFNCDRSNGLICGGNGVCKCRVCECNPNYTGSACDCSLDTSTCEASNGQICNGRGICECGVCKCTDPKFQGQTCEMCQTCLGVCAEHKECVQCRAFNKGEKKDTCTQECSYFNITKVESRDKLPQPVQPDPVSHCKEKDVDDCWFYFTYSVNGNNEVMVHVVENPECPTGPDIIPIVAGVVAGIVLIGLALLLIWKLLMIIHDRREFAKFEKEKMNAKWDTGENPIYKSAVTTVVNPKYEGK
Chain of Fibronectin receptor (Integrin alpha-5/beta-1 and alpha-V/beta-3) (Homo sapiens) (P06756 whole entry, looked up): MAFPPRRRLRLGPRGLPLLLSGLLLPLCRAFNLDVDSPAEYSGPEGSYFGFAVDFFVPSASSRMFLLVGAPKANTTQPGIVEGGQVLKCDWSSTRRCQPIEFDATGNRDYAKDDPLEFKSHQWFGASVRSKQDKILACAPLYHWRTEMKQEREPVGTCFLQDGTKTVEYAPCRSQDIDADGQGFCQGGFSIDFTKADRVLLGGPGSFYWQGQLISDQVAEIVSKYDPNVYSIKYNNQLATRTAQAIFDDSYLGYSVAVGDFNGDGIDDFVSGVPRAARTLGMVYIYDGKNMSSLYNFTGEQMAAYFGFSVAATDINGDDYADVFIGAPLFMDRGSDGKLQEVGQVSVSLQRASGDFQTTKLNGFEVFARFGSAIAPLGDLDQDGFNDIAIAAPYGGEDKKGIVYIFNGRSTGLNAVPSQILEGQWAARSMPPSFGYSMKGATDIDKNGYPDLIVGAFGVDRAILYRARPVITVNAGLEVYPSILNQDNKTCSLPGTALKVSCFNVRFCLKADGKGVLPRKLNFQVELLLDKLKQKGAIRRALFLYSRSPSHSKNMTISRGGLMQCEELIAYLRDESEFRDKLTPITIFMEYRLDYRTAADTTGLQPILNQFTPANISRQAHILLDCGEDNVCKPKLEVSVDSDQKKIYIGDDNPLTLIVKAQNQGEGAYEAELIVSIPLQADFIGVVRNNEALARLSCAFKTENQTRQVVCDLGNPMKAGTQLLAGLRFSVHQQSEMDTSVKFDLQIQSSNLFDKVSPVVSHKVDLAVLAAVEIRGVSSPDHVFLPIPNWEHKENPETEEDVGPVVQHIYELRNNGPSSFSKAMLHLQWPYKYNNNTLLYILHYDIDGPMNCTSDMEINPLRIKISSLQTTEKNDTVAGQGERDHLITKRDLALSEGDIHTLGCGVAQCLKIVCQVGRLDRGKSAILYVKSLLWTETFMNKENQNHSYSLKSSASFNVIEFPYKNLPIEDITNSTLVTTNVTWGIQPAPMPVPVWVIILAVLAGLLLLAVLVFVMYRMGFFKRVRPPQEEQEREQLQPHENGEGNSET
Chain of Fibronectin receptor (Integrin alpha-5/beta-1 and alpha-V/beta-3) (Homo sapiens) (P08648 whole entry, looked up): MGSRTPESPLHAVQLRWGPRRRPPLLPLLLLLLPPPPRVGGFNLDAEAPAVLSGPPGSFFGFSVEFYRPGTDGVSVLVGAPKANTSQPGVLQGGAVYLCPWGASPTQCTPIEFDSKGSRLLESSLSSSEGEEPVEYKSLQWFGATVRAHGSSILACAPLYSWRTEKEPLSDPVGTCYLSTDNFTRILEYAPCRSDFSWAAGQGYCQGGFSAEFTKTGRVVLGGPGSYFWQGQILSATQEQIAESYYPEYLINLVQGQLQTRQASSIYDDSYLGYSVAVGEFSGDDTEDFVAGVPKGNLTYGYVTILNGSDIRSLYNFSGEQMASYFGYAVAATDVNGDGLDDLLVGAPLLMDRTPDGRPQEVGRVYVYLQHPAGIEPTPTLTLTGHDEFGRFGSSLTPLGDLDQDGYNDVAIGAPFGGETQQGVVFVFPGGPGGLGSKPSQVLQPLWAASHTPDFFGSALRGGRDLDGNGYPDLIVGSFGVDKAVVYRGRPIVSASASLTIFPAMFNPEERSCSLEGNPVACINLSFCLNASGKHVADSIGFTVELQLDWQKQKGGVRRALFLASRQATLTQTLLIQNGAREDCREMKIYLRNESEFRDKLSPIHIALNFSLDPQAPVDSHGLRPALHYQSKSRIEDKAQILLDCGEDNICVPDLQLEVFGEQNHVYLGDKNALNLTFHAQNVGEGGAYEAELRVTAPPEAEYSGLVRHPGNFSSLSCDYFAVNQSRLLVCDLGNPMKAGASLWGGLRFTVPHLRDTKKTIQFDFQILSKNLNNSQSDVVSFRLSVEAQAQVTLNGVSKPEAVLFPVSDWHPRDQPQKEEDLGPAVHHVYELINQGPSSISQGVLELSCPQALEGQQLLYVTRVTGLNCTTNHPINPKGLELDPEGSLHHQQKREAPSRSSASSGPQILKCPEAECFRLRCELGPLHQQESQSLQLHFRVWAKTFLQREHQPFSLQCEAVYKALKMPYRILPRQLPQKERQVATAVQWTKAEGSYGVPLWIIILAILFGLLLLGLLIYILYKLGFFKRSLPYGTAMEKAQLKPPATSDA

As to `NCC(=O)N[C@@H](CCCN=C(N)N)C(=O)NCC(=O)N[C@@H](CC(=O)O)C(=O)N[C@@H](CO)C(=O)N1CCC[C@H]1C(=O)O`, the Binding activity in assay [1] came to 50 µM; in assay [2], 0.582 µM; in assay [3], 0.8 µM; in assay [4], 0.02 µM.
